{
  "source": "patent US11045441B2",
  "about": "“Use of retinoic acid and analogs thereof to treat central neural apneas” (Wisconsin Alumni Research Foundation, priority 2015, dated 2021)",
  "format_in_all_cases": "in vivo",
  "key": {"[1]": {"tested_on": "apnea and hypopnea events", "experiment": "Chronic intermittent hypoxia (CIH) model, diaphragm EMG recording of apneic and hypoapneic events", "conditions": "rats; intraperitoneal 500 mcg/kg daily during 7 day CIH plus day 8 dose; FIG. 5", "text": "Briefly, the experimental and control animals were placed in adjoining, identical chambers that were maintained at room temperature and were large enough to allow unimpeded movement. The fraction of inspired oxygen in each chamber was regulated by microprocessor-controlled miniature solenoids attached to each chamber by high-pressure tubing. For the CIH protocol, the chamber was flushed with 100% nitrogen for 30 sec followed by 30 sec of 100% O2 at a low flow rate. The time course of change in the fraction of inspired oxygen for the experimental chamber was determined using an oxygen analyzer (Sensormedics, Milan, Italy): a decline to a nadir of 6.5 to 7% oxygen, remaining at that level for 5 to 7 sec, and then gradually increasing to 21% over the next 30 sec during which oxygen flowed into the chamber. This cycle was repeated each minute over 8 daytime hours (8 to 9 am to 4 to 5 pm) for 7 days. Control rats were exposed to the same sequence of events as experimental rats, with the exception that room air was used instead of nitrogen and oxygen. […] The experimental animals were administered intra peritoneal trans-retinoic acid (500 mcg/kg) daily throughout the 7 day CIH exposure with an additional dose given the morning of diaphragm electromyography (EMG) recordings (day 8; total of 8 injections) […] and hypoapneic events were recorded via conventional diaphragm EMG measurements."}, "phrenic nerve activity": {"tested_on": "phrenic nerve activity", "experiment": "Protocol 1: intrathecal retinoic acid injections, phrenic nerve recording in anesthetized rats", "conditions": "three 10 μL intrathecal injections, 50 μM each, 60 min after final injection, vs vehicle control, FIGS. 1A, 1B", "experimental": "Respiratory-related activity was recorded from the left phrenic and hypoglossal nerves in urethane-anesthetized (1.7 g/kg), vagotomized, paralyzed and mechanically ventilated rats (see Strey et al., 2012 for details). Rats are slightly hyperventilated, so a small amount of inspired CO2 was delivered to achieve target, normal PCO2. A pre-study apneic threshold test was performed. The apneic threshold was determined by lowering arterial PCO2 until phrenic respiratory activity ceased. […] Following 15 min of stable phrenic and hypoglossal burst discharge, baseline phrenic and hypoglossal burst amplitudes and blood gases were measured. Rats were then subjected to one of the following protocols: Protocol 1) Three (3) 10 μL intrathecal injections (50 μM each) of retinoic acid or three (3) 10 μL of vehicle (aCSF in 10% DMSO). […] Protocol 1 tests the hypothesis that retinoic acid is sufficient to elicit inactivity-induced respiratory motor facilitation. […] Phrenic burst amplitude was recorded for up to 60 min following treatment, and an apneic threshold test was performed at the end of the protocol."}, "[2]": {"tested_on": "phrenic and hypoglossal nerve activity", "experiment": "Protocol 2: central neural apnea model with concurrent hypoxia, rats pretreated with retinoic acid", "method": "Respiratory-related activity was recorded from the left phrenic and hypoglossal nerves in urethane-anesthetized (1.7 g/kg), vagotomized, paralyzed and mechanically ventilated rats (see Strey et al., 2012 for details). Rats are slightly hyperventilated, so a small amount of inspired CO2 was delivered to achieve target, normal PCO2. A pre-study apneic threshold test was performed. The apneic threshold was determined by lowering arterial PCO2 until phrenic respiratory activity ceased. […] Following 15 min of stable phrenic and hypoglossal burst discharge, baseline phrenic and hypoglossal burst amplitudes and blood gases were measured. Rats were then subjected to one of the following protocols:\nProtocol 2) Five (5) brief central neural apneas followed by a 25 sec ventilator apnea (nadir O2 saturation ˜70%) in rats pretreated with vehicle (“control”) or retinoic acid (see below for details). The results are depicted in FIGS. 2A, 2B, and 3.\nProtocol 1 tests the hypothesis that retinoic acid is sufficient to elicit inactivity-induced respiratory motor facilitation. Protocol 2 tests the hypothesis that retinoic acid administration can circumvent hypoxia-induced constraints on inactivity-induced respiratory motor facilitation. Phrenic burst amplitude was recorded for up to 60 min following treatment, and an apneic threshold test was performed at the end of the protocol.\nTo model a central neural apnea in anesthetized rats, inflow of CO2 was ceased by stopcock valve to reduce arterial PCO2 below the apneic threshold. Following a 10 second period of no phrenic firing activity (signaling absent breaths) the ventilator was turned off for 25 seconds to model the hypoxia that would normally be experienced in a human. At the end of 25 seconds, the ventilator was turned back on and PaCO2 was restored. This experience was repeated five times, with five minutes separating each episode."}},
  "data": [
    {"smiles": "CC1=C(/C=C/C(C)=C/C=C/C(C)=C/C(=O)O)C(C)(C)CCC1", "note": "[retinoic acid, all-trans retinoic acid]", "values": [
      {"measurement": "number of apnea and hypopnea events (diaphragm EMG)", "setting": "[1]", "value": "reduces the number of apnea and hypopnea events"},
      {"measurement": "phrenic nerve activity (phrenic motor output) as a percentage of baseline activity", "setting": "phrenic nerve activity", "value": "persistently increases phrenic motor output"},
      {"measurement": "phrenic nerve activity (phrenic motor output) as a percentage of baseline activity", "setting": "phrenic nerve activity; listed as trans-retinoic acid", "value": "significantly higher than control group"},
      {"measurement": "CO2 apneic threshold", "setting": "[2]; anesthetized rats, given before central neural apnea, 60 min post injection, vs control, FIG. 3", "value": "reduced the CO2 apneic threshold relative to a control groups"},
      {"measurement": "phrenic burst amplitude", "setting": "[2]; anesthetized rats, intrathecal 10 μL, 50 μM before central neural apneas with hypoxia, 60 min after, FIG. 2A", "value": "significantly higher than pre-stimulation levels"},
      {"measurement": "hypoglossal burst amplitude", "setting": "[2]; anesthetized rats, intrathecal 10 μL, 50 μM before central neural apneas with hypoxia, 60 min after, FIG. 2B", "value": "significantly higher than pre-stimulation levels"},
      {"measurement": "enhanced phrenic motor output following inactivity with concurrent hypoxia", "setting": "[2]; pretreatment, intermittent inactivity with concurrent hypoxia, FIG. 4C", "value": "rescues then enhanced phrenic motor output"}
    ]}
  ]
}
